# In PubChem BioAssay (NCI):
#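 Where inhibition never reached the appropriate level, the endpoint shown equals the highest concentration tested. Otherwise, values were interpolated linearly from a five-concentration, 48-hour dose response in 96-well plates. Abbreviation: GI50, concentration required for 50% inhibition of growth. Definition used: TGI = concentration required for complete inhibition of growth.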
# Key:
# Assay in all cases: growth of human tumour cells (NCI), 48 h
# [1] = tested on: COLO 205 colon
# [2] = tested on: EKVX NSCLC
# [3] = tested on: HCT-116 colon
# [4] = tested on: HOP-62 NSCLC
# [5] = tested on: HT29 colon
# [6] = tested on: IGROV1 ovarian
# [7] = tested on: KM12 colon
# [8] = tested on: KM20L2 colon
# [9] = tested on: LOX IMVI melanoma
# [10] = tested on: NCI-H23 lung
# [11] = tested on: SF-539 CNS
# [12] = tested on: SK-MEL-5 melanoma
# [13] = tested on: SNB-19 CNS
# [14] = tested on: PC-3 prostate
SMILES,TGI [1] [µM],TGI [2] [µM],TGI [3] [µM],TGI [4] [µM],TGI [5] [µM],TGI [6] [µM],TGI [7] [µM],TGI [8] [µM],TGI [9] [µM],TGI [10] [µM],TGI [11] [µM],TGI [12] [µM],TGI [13] [µM],GI50 [3] [µM],GI50 [4] [µM],TGI [14] [µM]
CN(C)CCOc1cc2c(c3ccccc13)-c1ccccc1C2=O,3.68,18.5,2.93,3.95,3.44,7.35,3.03,5.3,2.53,5.24,3.27,2.96,8.39,–,–,–
CS(=O)(=O)c1nc(N)nc2nc[nH]c12,> 100,> 100,> 100,> 100,> 100,> 100,> 100,> 100,> 100,> 100,> 100,> 100,> 100,–,–,–
CCSC(=Nc1ccccc1)SC,> 100,> 100,> 100,> 100,> 100,> 100,> 100,> 100,> 100,> 100,> 100,> 100,> 100,–,–,–
N#CN=Nc1cc(Cl)c(N=NC#N)cc1Cl,> 100,> 100,> 100,> 100,> 100,> 100,> 100,> 100,> 100,> 100,> 100,> 100,> 100,–,–,–
CCCCOC(=O)CN1C(=O)c2ccccc2C1=O,> 100,> 100,> 100,> 100,> 100,> 100,> 100,> 100,> 100,> 100,> 100,> 100,> 100,–,–,–
CC(N)Cc1cccc(C(F)(F)F)c1 (stereo unspecified),> 100,> 100,> 100,> 100,> 100,> 100,> 100,> 100,> 100,> 100,> 100,> 100,> 100,–,–,–
CC(=O)O[C@H]1CC[C@H]2[C@@H]3CCc4cc(O)c(I)cc4[C@H]3CC[C@]12C,33.6,26.8,29.9,24,33.2,30.5,28.3,–,30.2,27.4,29.7,17.2,32.3,16,11,20
O=C(O)CN1CCNCCN(CC(=O)O)CC1,6.12,> 100,> 37.3,> 100,> 21.4,> 100,> 100,–,> 100,20.7,> 100,39.5,> 100,–,–,> 100
